Test results as given in PMC5218480 (PLoS ONE, 2017).

System: MV-4-11 cells
Assay: Gene expression microarray analysis (Affymetrix PrimeView) and GSEA
Format: cell-based, human
Set-up: RFU PODN (11730768_x_at) / Fold change /veh PODN (11730768_x_at) / RFU LINC00158 (11744669_a_at) / Fold change /veh LINC00158 (11744669_a_at) / RFU DUSP10 (11751237_a_at) / Fold change /veh DUSP10 (11751237_a_at) / RFU ID3 (11757404_x_at) / Fold change /veh ID3 (11757404_x_at) / RFU PLEKHG5 (11737974_s_at) / Fold change /veh PLEKHG5 (11737974_s_at) / RFU LRRC4B (11730491_at) / Fold change /veh LRRC4B (11730491_at) / RFU GIMAP4 (11747438_a_at) / Fold change /veh GIMAP4 (11747438_a_at) / RFU KRT8 (11758183_x_at) / Fold change /veh KRT8 (11758183_x_at) / RFU CNN1 (11734310_a_at) / Fold change /veh CNN1 (11734310_a_at) / RFU VPS37D (11726825_at) / Fold change /veh VPS37D (11726825_at) / RFU C10orf10 (11716522_x_at) / Fold change /veh C10orf10 (11716522_x_at) / RFU KIR2DL2 /// KIR2DL4 /// KIR2DL5A /// KIR2DL5B /// KIR2DS1 /// KIR2DS2 /// KIR2DS3 /// KIR2DS4 /// KIR3DL3 /// KIR3DL3 /// KIR3DS1 (11738374_at) / Fold change /veh KIR2DL2 /// KIR2DL4 /// KIR2DL5A /// KIR2DL5B /// KIR2DS1 /// KIR2DS2 /// KIR2DS3 /// KIR2DS4 /// KIR3DL3 /// KIR3DL3 /// KIR3DS1 (11738374_at) / RFU C1QL1 (11718748_at) / Fold change /veh C1QL1 (11718748_at) / RFU TMPRSS4 (11747572_a_at) / Fold change /veh TMPRSS4 (11747572_a_at) / RFU HAMP (11756126_x_at) / Fold change /veh HAMP (11756126_x_at) / RFU RNFT2 (11725882_a_at) / Fold change /veh RNFT2 (11725882_a_at) / RFU NR4A2 (11747474_a_at) / Fold change /veh NR4A2 (11747474_a_at) / RFU ABCC12 (11746883_a_at) / Fold change /veh ABCC12 (11746883_a_at) / RFU TMEM136 (11760407_x_at) / Fold change /veh TMEM136 (11760407_x_at) / RFU CLDN22 /// WWC2 (11732394_at) / Fold change /veh CLDN22 /// WWC2 (11732394_at) / RFU HLA-DPB1 (11760878_x_at) / Fold change /veh HLA-DPB1 (11760878_x_at) / RFU SPINT1 (11716480_a_at) / Fold change /veh SPINT1 (11716480_a_at) / RFU GAP43 (11754022_s_at) / Fold change /veh GAP43 (11754022_s_at) / RFU A4GNT (11735810_at) / Fold change /veh A4GNT (11735810_at) / RFU PRB3 (11715151_x_at) / Fold change /veh PRB3 (11715151_x_at) / RFU TUBB4B (11761932_at) / Fold change /veh TUBB4B (11761932_at) / RFU CAPN14 (11732068_a_at) / Fold change /veh CAPN14 (11732068_a_at) / RFU TMCC2 (11721928_a_at) / Fold change /veh TMCC2 (11721928_a_at) / RFU IRGQ (11745062_a_at) / Fold change /veh IRGQ (11745062_a_at) / RFU FAM174B (11720279_a_at) / Fold change /veh FAM174B (11720279_a_at) / RFU TMPRSS4 (11748680_a_at) / Fold change /veh TMPRSS4 (11748680_a_at) / RFU FAM212B (11763350_a_at) / Fold change /veh FAM212B (11763350_a_at) / RFU PLEKHG5 (11743358_a_at) / Fold change /veh PLEKHG5 (11743358_a_at) / RFU ZSCAN30 (11745921_a_at) / Fold change /veh ZSCAN30 (11745921_a_at) / RFU CMKLR1 (11741424_a_at) / Fold change /veh CMKLR1 (11741424_a_at) / RFU LOC101060620 /// MAPK8IP1 (11723275_at) / Fold change /veh LOC101060620 /// MAPK8IP1 (11723275_at) / RFU SPTSSB (11747773_x_at) / Fold change /veh SPTSSB (11747773_x_at) / RFU PRSS12 (11739890_at) / Fold change /veh PRSS12 (11739890_at) / RFU BIN1 (11741810_x_at) / Fold change /veh BIN1 (11741810_x_at) / RFU WNT11 (11732464_a_at) / Fold change /veh WNT11 (11732464_a_at) / RFU C10orf10 (11716521_a_at) / Fold change /veh C10orf10 (11716521_a_at) / RFU C5orf56 (11738089_at) / Fold change /veh C5orf56 (11738089_at) / RFU CYB561 (11721691_x_at) / Fold change /veh CYB561 (11721691_x_at) / RFU ANKRD19P (11752326_a_at) / Fold change /veh ANKRD19P (11752326_a_at) / RFU OR2T12 /// OR2T33 /// OR2T8 (11738714_s_at) / Fold change /veh OR2T12 /// OR2T33 /// OR2T8 (11738714_s_at) / RFU VCAN (11748164_a_at) / Fold change /veh VCAN (11748164_a_at) / RFU JSRP1 (11732532_at) / Fold change /veh JSRP1 (11732532_at) / RFU KRTAP10-11 (11738290_x_at) / Fold change /veh KRTAP10-11 (11738290_x_at) / RFU MYO3A (11730013_a_at) / Fold change /veh MYO3A (11730013_a_at) / RFU EBF3 (11725865_a_at) / Fold change /veh EBF3 (11725865_a_at) / RFU CAMK2N1 (11719241_x_at) / Fold change /veh CAMK2N1 (11719241_x_at) / RFU C5orf56 (11738088_a_at) / Fold change /veh C5orf56 (11738088_a_at) / RFU OLFML3 (11715873_a_at) / Fold change /veh OLFML3 (11715873_a_at) / RFU LOC100653217 /// NTM (11731650_a_at) / Fold change /veh LOC100653217 /// NTM (11731650_a_at) / RFU MAPK11 (11762145_a_at) / Fold change /veh MAPK11 (11762145_a_at) / RFU FIZ1 (11724087_x_at) / Fold change /veh FIZ1 (11724087_x_at) / RFU OASL (11726364_x_at) / Fold change /veh OASL (11726364_x_at) / RFU SOX15 (11748057_x_at) / Fold change /veh SOX15 (11748057_x_at) / RFU CD79A (11719716_a_at) / Fold change /veh CD79A (11719716_a_at) / RFU HIST1H1D (11736915_at) / Fold change /veh HIST1H1D (11736915_at) / RFU CASKIN2 (11723855_a_at) / Fold change /veh CASKIN2 (11723855_a_at) / RFU LOC730098 (11760151_x_at) / Fold change /veh LOC730098 (11760151_x_at) / RFU OR4N2 (11742367_at) / Fold change /veh OR4N2 (11742367_at) / RFU PRRT2 (11749266_a_at) / Fold change /veh PRRT2 (11749266_a_at) / RFU SNX32 (11753110_a_at) / Fold change /veh SNX32 (11753110_a_at) / RFU CDHR5 (11726645_a_at) / Fold change /veh CDHR5 (11726645_a_at) / RFU RCAN1 (11760418_a_at) / Fold change /veh RCAN1 (11760418_a_at) / RFU FAM167A (11723789_a_at) / Fold change /veh FAM167A (11723789_a_at) / RFU FAM26E (11764081_at) / Fold change /veh FAM26E (11764081_at) / RFU ISYNA1 (11749810_s_at) / Fold change /veh ISYNA1 (11749810_s_at) / RFU ACY1 (11761880_at) / Fold change /veh ACY1 (11761880_at) / RFU 11764098_at / Fold change /veh 11764098_at / RFU SAMD14 (11745864_x_at) / Fold change /veh SAMD14 (11745864_x_at) / RFU NPB (11741838_a_at) / Fold change /veh NPB (11741838_a_at) / RFU TMPRSS6 (11731388_a_at) / Fold change /veh TMPRSS6 (11731388_a_at) / RFU KRTAP10-2 (11738614_at) / Fold change /veh KRTAP10-2 (11738614_at) / RFU ARHGAP8 /// PRR5-ARHGAP8 (11727945_x_at) / Fold change /veh ARHGAP8 /// PRR5-ARHGAP8 (11727945_x_at) / RFU KRTAP5-7 /// NADSYN1 (11734609_at) / Fold change /veh KRTAP5-7 /// NADSYN1 (11734609_at) / RFU RASL12 (11751679_a_at) / Fold change /veh RASL12 (11751679_a_at) / RFU CDKN2B (11736163_a_at) / Fold change /veh CDKN2B (11736163_a_at) / RFU PRF1 (11729649_at) / Fold change /veh PRF1 (11729649_at) / RFU, ZNF638 /// ZNF638-IT1 / Fold change vs veh, ZNF638 /// ZNF638-IT1 / RFU, PANK3 / Fold change vs veh, PANK3 / RFU, SH3YL1 / Fold change vs veh, SH3YL1 / RFU, ZEB2 / Fold change vs veh, ZEB2 / RFU, NRIP1 / Fold change vs veh, NRIP1 / RFU, PTTG1IP / Fold change vs veh, PTTG1IP / RFU, CAPN2 / Fold change vs veh, CAPN2 / RFU, MED14 / Fold change vs veh, MED14 / RFU, SNORA58 / Fold change vs veh, SNORA58 / RFU, C1orf63 / Fold change vs veh, C1orf63 / RFU, LRRFIP1 / Fold change vs veh, LRRFIP1 / RFU, NDUFAF7 / Fold change vs veh, NDUFAF7 / RFU, SLC12A2 / Fold change vs veh, SLC12A2 / RFU, IBTK / Fold change vs veh, IBTK / RFU, ESF1 / Fold change vs veh, ESF1 / Fold change vs veh, TMEM50B / RFU, TAOK1 / Fold change vs veh, TAOK1 / RFU, ACBD3 / Fold change vs veh, ACBD3 / RFU, TMA16 / Fold change vs veh, TMA16 / RFU, RWDD3 / Fold change vs veh, RWDD3 / RFU, BCAT1 / Fold change vs veh, BCAT1 / RFU, EDEM3 / Fold change vs veh, EDEM3 / RFU, TMEM33 / Fold change vs veh, TMEM33 / RFU, WDR75 / Fold change vs veh, WDR75 / RFU, AHCTF1 / Fold change vs veh, AHCTF1 / RFU, TFRC / Fold change vs veh, TFRC / RFU, ZDHHC17 / Fold change vs veh, ZDHHC17 / RFU, NOM1 / Fold change vs veh, NOM1 / RFU, ARL8B / Fold change vs veh, ARL8B / RFU, ZBTB11 / Fold change vs veh, ZBTB11 / RFU, TAMM41 / Fold change vs veh, TAMM41 / RFU, KIAA1704 /// LOC100996395 / Fold change vs veh, KIAA1704 /// LOC100996395 / RFU, ING1 / Fold change vs veh, ING1 / RFU, TRMT61B / Fold change vs veh, TRMT61B / RFU, FUBP3 / Fold change vs veh, FUBP3 / RFU, TP53 / Fold change vs veh, TP53 / RFU, TNKS2 / Fold change vs veh, TNKS2 / RFU, ZFP14 / Fold change vs veh, ZFP14 / RFU, ACTR2 / Fold change vs veh, ACTR2 / RFU, PPP3R1 / Fold change vs veh, PPP3R1 / RFU, PIK3R1 / Fold change vs veh, PIK3R1 / RFU, HNRNPA1 / Fold change vs veh, HNRNPA1 / RFU, RNF170 / Fold change vs veh, RNF170 / RFU, ZNF28 / Fold change vs veh, ZNF28 / RFU, RNGTT / Fold change vs veh, RNGTT / RFU, OGT / Fold change vs veh, OGT / RFU, BRD1 / Fold change vs veh, BRD1 / RFU, MARS / Fold change vs veh, MARS / RFU, ZNF655 / Fold change vs veh, ZNF655 / RFU, FAHD1 / Fold change vs veh, FAHD1 / RFU, BDP1 / Fold change vs veh, BDP1 / RFU, LRRCC1 / Fold change vs veh, LRRCC1 / RFU, ARID1A / Fold change vs veh, ARID1A / RFU, ZNF146 / Fold change vs veh, ZNF146 / RFU, ZNF330 / Fold change vs veh, ZNF330 / RFU, GPN3 / Fold change vs veh, GPN3 / RFU, C9orf123 / Fold change vs veh, C9orf123 / RFU, N4BP2L2 / Fold change vs veh, N4BP2L2 / RFU, ARFIP1 / Fold change vs veh, ARFIP1 / RFU, FAM179B / Fold change vs veh, FAM179B / RFU, BCL10 / Fold change vs veh, BCL10 / RFU, UHRF1BP1L / Fold change vs veh, UHRF1BP1L / RFU, BET1 / Fold change vs veh, BET1 / RFU, CNOT2 / Fold change vs veh, CNOT2 / RFU, ZNF268 / Fold change vs veh, ZNF268 / Fold change vs veh, ZNF507 / RFU, DGCR2 / Fold change vs veh, DGCR2 / RFU, WDSUB1 / Fold change vs veh, WDSUB1 / Fold change vs veh, HSP90B1 /// MIR3652 / RFU, ADSS / Fold change vs veh, ADSS / RFU, GK / Fold change vs veh, GK / RFU, ZNF148 / Fold change vs veh, ZNF148 / RFU, TAF9 / Fold change vs veh, TAF9 / RFU, SLC1A5 / Fold change vs veh, SLC1A5 / RFU, SLMO2 / Fold change vs veh, SLMO2 / RFU, ABCC4 / Fold change vs veh, ABCC4 / RFU, LOC101060439 /// RAP1B / Fold change vs veh, LOC101060439 /// RAP1B / RFU, RFX7 / Fold change vs veh, RFX7 / RFU, GTPBP10 / Fold change vs veh, GTPBP10 / RFU, CNEP1R1 / Fold change vs veh, CNEP1R1 / RFU, BIVM-ERCC5 /// ERCC5 / Fold change vs veh, BIVM-ERCC5 /// ERCC5 / RFU, ILF3 / Fold change vs veh, ILF3 / RFU 11762660_at / Fold change /veh 11762660_at / RFU VCAN (11757783_s_at) / Fold change /veh VCAN (11757783_s_at) / RFU DDX43 (11728927_at) / Fold change /veh DDX43 (11728927_at) / RFU KRT8 (11758188_x_at) / Fold change /veh KRT8 (11758188_x_at) / RFU NKD1 (11759106_at) / Fold change /veh NKD1 (11759106_at) / RFU SRD5A1 (11742802_a_at) / Fold change /veh SRD5A1 (11742802_a_at) / RFU TPSAB1 /// TPSB2 (11721975_s_at) / Fold change /veh TPSAB1 /// TPSB2 (11721975_s_at) / RFU GSTM3 (11746129_a_at) / Fold change /veh GSTM3 (11746129_a_at) / RFU IL23R (11737362_x_at) / Fold change /veh IL23R (11737362_x_at) / RFU TMEM51 (11727254_a_at) / Fold change /veh TMEM51 (11727254_a_at) / RFU PIWIL2 (11732686_x_at) / Fold change /veh PIWIL2 (11732686_x_at) / RFU ORM1 (11744905_x_at) / Fold change /veh ORM1 (11744905_x_at) / RFU CCDC152 (11743942_at) / Fold change /veh CCDC152 (11743942_at) / RFU ECM1 (11717891_a_at) / Fold change /veh ECM1 (11717891_a_at) / RFU IL23R (11748794_a_at) / Fold change /veh IL23R (11748794_a_at) / RFU TNFAIP8L3 (11732012_x_at) / Fold change /veh TNFAIP8L3 (11732012_x_at) / RFU MBOAT4 (11741988_at) / Fold change /veh MBOAT4 (11741988_at) / RFU 11764193_at / Fold change /veh 11764193_at / RFU TMEM53 (11763286_at) / Fold change /veh TMEM53 (11763286_at) / RFU MAGEB2 (11727129_at) / Fold change /veh MAGEB2 (11727129_at) / RFU TMEM200A (11744735_a_at) / Fold change /veh TMEM200A (11744735_a_at) / RFU CCDC152 (11751479_a_at) / Fold change /veh CCDC152 (11751479_a_at) / RFU FAM211A (11726209_a_at) / Fold change /veh FAM211A (11726209_a_at) / RFU RGS16 (11746705_a_at) / Fold change /veh RGS16 (11746705_a_at) / RFU VCAN (11755009_s_at) / Fold change /veh VCAN (11755009_s_at) / RFU RHOB (11743442_s_at) / Fold change /veh RHOB (11743442_s_at) / RFU RGS16 (11720943_a_at) / Fold change /veh RGS16 (11720943_a_at) / RFU RGS16 (11720944_at) / Fold change /veh RGS16 (11720944_at) / RFU, VPS4B / Fold change vs veh, VPS4B / RFU, CREB1 / Fold change vs veh, CREB1 / RFU, DNAJC13 / Fold change vs veh, DNAJC13 / RFU, GNAQ / Fold change vs veh, GNAQ / RFU, CDK5R1 / Fold change vs veh, CDK5R1 / RFU, ZRANB3 / Fold change vs veh, ZRANB3 / RFU, CUL4A / Fold change vs veh, CUL4A / RFU, CCNY / Fold change vs veh, CCNY / RFU, UFL1 / Fold change vs veh, UFL1 / RFU, COG3 / Fold change vs veh, COG3 / RFU, DIAPH2 / Fold change vs veh, DIAPH2 / RFU, SKA2 / Fold change vs veh, SKA2 / RFU, AFF3 / Fold change vs veh, AFF3 / RFU, LMF1 / Fold change vs veh, LMF1 / RFU, IPO11 / Fold change vs veh, IPO11 / RFU, DFFB / Fold change vs veh, DFFB / RFU, FOXP1 / Fold change vs veh, FOXP1 / RFU, CARD8 / Fold change vs veh, CARD8 / RFU, STRN3 / Fold change vs veh, STRN3 / RFU, ADK / Fold change vs veh, ADK / RFU, RASSF2 / Fold change vs veh, RASSF2 / RFU, WIPF1 / Fold change vs veh, WIPF1 / RFU, LARP1B / Fold change vs veh, LARP1B / RFU, RASA1 / Fold change vs veh, RASA1 / RFU, RB1 / Fold change vs veh, RB1 / RFU, PPFIA1 / Fold change vs veh, PPFIA1 / RFU, MAT2A / Fold change vs veh, MAT2A / RFU, CCT5 / Fold change vs veh, CCT5 / RFU, WDR92 / Fold change vs veh, WDR92 / RFU, CUX1 / Fold change vs veh, CUX1 / RFU, TTC7A / Fold change vs veh, TTC7A / RFU, TMEM135 / Fold change vs veh, TMEM135 / RFU, DEPTOR / Fold change vs veh, DEPTOR / RFU, CPM / Fold change vs veh, CPM / RFU, DNAJB6 / Fold change vs veh, DNAJB6 / RFU, CACNA2D3 / Fold change vs veh, CACNA2D3 / RFU, DTX4 / Fold change vs veh, DTX4 / RFU, TFCP2 / Fold change vs veh, TFCP2 / RFU, GMCL1 /// GMCL1P1 / Fold change vs veh, GMCL1 /// GMCL1P1 / RFU, AEBP2 / Fold change vs veh, AEBP2 / RFU, SNHG1 /// SNORD22 /// SNORD25 /// SNORD26 /// SNORD27 /// SNORD28 /// SNORD29 /// SNORD31 / Fold change vs veh, SNHG1 /// SNORD22 /// SNORD25 /// SNORD26 /// SNORD27 /// SNORD28 /// SNORD29 /// SNORD31 / Fold change (Aza/veh), C12orf56 (ProbeSet 11735607_a_at) / Fold change (ACY-1035/veh), C12orf56 (ProbeSet 11735607_a_at) / Fold change (Aza/veh), FGFR1OP (ProbeSet 11751329_s_at) / Fold change (ACY-1035/veh), FGFR1OP (ProbeSet 11751329_s_at) / Fold change (Aza/veh), VPS36 (ProbeSet 11739960_a_at) / Fold change (ACY-1035/veh), VPS36 (ProbeSet 11739960_a_at) / RFU SYPL1 (11715823_x_at) / Fold change /veh SYPL1 (11715823_x_at) / RFU IGFBP7 (11715501_s_at) / Fold change /veh IGFBP7 (11715501_s_at) / RFU REEP3 (11722064_at) / Fold change /veh REEP3 (11722064_at) / RFU IGLL1 (11728026_x_at) / Fold change /veh IGLL1 (11728026_x_at): dose or concentration left out as unconfirmed
Conditions: MV-4-11 cells, 48 hours

With `Nc1ccc(-c2cccs2)cc1NC(=O)c1ccc2c(c1)cc(C1CC1)n2CCN1CCOCC1` [ACY-1035] the “Fold change /veh CAMK2N1 (11719241_x_at)” value was 0.84.
